Our source for the TGI values is PubChem BioAssay (NCI).

The structures appear in SMILES notation.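 These data come from cells grown in 96-well plates and exposed to compound for 48 hours at five concentrations. At the TGI there is no net growth.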 A value given as a limit tells only on which side of the number the result lay.

Test systems include RXF-631 renal; SNB-78 CNS; DLD-1 colon; M19-MEL melanoma; XF 498 CNS; DMS 273 small cell lung; P388/ADR leukemia; P388 leukemia; SN12K1 renal.
Common to all, as to experiment: NCI tumour cell line growth inhibition, 48 h

For the compound `COc1cc2c(cc1OC)C(Cl)C(c1ccc(Cl)cc1)=C2Cl` (centres undefined), the TGI in the experiment with RXF-631 renal was found to be 51.7 µM; in the experiment on SNB-78 CNS, 58.5 µM; with DLD-1 colon, 37.8 µM; with M19-MEL melanoma, 41.3 µM; in the experiment on XF 498 CNS, 9.09 µM; with DMS 273 small cell lung, 41.6 µM.
For `Cc1c2ccnc(-c3ccccc3)c2cc2c1[nH]c1ccccc12`, the TGI in the experiment with P388/ADR leukemia amounted to 6.08 µM; with SNB-78 CNS it was 30.4 µM; in the experiment with DLD-1 colon it was 16.1 µM; in the experiment with M19-MEL melanoma it was 8.48 µM; in the experiment on P388 leukemia it was 5.46 µM; with SN12K1 renal it was 5.04 µM. In addition, the TGI in the experiment on DMS 273 small cell lung amounted to 4.06 µM.
In the case of `CN(C)CCNC(=O)c1cccc2nc3c4ccccc4c4ccccc4c3nc12`, the TGI in the experiment on SNB-78 CNS is 37.6 µM; in the experiment with DLD-1 colon it was 2.9 µM; with M19-MEL melanoma, 3.4 µM; with XF 498 CNS, 9.06 µM; in the experiment with DMS 273 small cell lung it was above 100 µM.
With `CN(C)c1ccc(C2CC(=O)C(C#N)=C(c3ccccc3)NN2C)cc1` (centres undefined), the TGI was above 100 µM in the experiment with RXF-631 renal, above 100 µM with SNB-78 CNS, above 100 µM in the experiment with DLD-1 colon and 38.3 µM in the experiment on XF 498 CNS.
On to `CC(C)(C)C1CCC2(CC1)CCN(CCCN1CCOCC1)CC2`, for which the TGI was 31 µM in the experiment with RXF-631 renal; 91.9 µM in the experiment with SNB-78 CNS; above 100 µM in the experiment with DLD-1 colon; 25.9 µM with M19-MEL melanoma; 38.3 µM with DMS 273 small cell lung.
As to `CN(C)[C@@H]1C(=O)C(C(=O)NCNCCCC(=O)O)=C(O)[C@@]2(O)C(=O)C3=C(O)c4c(O)cccc4[C@@](C)(O)[C@H]3C[C@@H]12`, the TGI in the experiment with SNB-78 CNS, in the experiment on DLD-1 colon, in the experiment on M19-MEL melanoma, with XF 498 CNS and with DMS 273 small cell lung was above 100 µM each time.
`COc1cc2ccc1-c1cc(ccc1O)CC1c3cc4c(cc3CCN1C)Oc1c(OC)cc3c(c1O4)C(C2)N(C)CC3` (centres undefined): the TGI in the experiment with SNB-78 CNS was 5.23 µM; with DLD-1 colon, 5.27 µM; with M19-MEL melanoma, 3.36 µM; with XF 498 CNS, 3.44 µM; in the experiment with DMS 273 small cell lung it was 3.27 µM.
As for `Oc1cc(O)cc(/C=C/c2ccc(O)c(O)c2)c1`, the TGI was above 67.5 µM in the experiment on P388/ADR leukemia; 76.5 µM with SNB-78 CNS; above 31.6 µM in the experiment on DLD-1 colon; 41.7 µM with M19-MEL melanoma; above 66.9 µM in the experiment with P388 leukemia; 18.3 µM in the experiment with SN12K1 renal. The compound also came in with a TGI in the experiment on DMS 273 small cell lung of 38.9 µM.
